The results in this text go back to patent US5183893A, “1-azabicycloalkane derivatives, their preparation process and their use as medicaments” (Roussel Uclaf, priority 1988, dated 1993).

Structures can show the parent of a compound that is named as a salt. Where two headings read alike, the source gives them in different places.

A short description of data set [1]: Acute toxicity (mortality during 7 days, oral). The note with it: mouse, in vivo, male CD1 mice, fasted 16 hours, mortality noted during 7 days. Here is the method:
The test is carried out on male mice (CD1 Charles Rivers) weighing 22 to 24 g, which have gone without food for 16 hours. The products are administered by oral route at a dose of 1000, 500, 250, 125, 62, 31 and 16 mg/kg. The mortality is noted during the 7 days following the treatment.

Another data set can be described thus: Diarrheic activity. Set-up: species or system mice. Conditions: mouse, in vivo. Here is the method:
The test is carried out on male mice (CD1 Charles Rivers) weighing 25 to 30 g, and without food for 6 hours. The product, dissolved at 5% in methocel, is administered by oral route, using an oesophagus probe.
Control animals receive only the excipient (20 ml/kg).
After treatment, the animals are put separately into cages, the bottom of which is covered with absorbent paper, and are observed for 30, 60, 120 and 180 minutes.
The absorbent sheets of paper are changed after each observation.
The consistency of the faeces is evaluated according to the Randall and Baruth method (Arch. Int. Pharmacodyn., 220, 94, 1976) in accordance with the following scale of values.
1: slightly soft faeces with or without a damp ring,
2: slightly soft faeces with presence of a well-defined damp ring,
3: soft faeces with presence of a large damp ring,
4: faeces without consistency with presence of a very large camp ring.
For each product, the dose has been noted which cause diarrohea in 50% of the animals according to the Miller and Tainter method (Proc. Soc. Exp. Biol. Med., 57, 261, 1944).

Data set [2] has as its system isolated ileum of a guinea-pig. Kind of data set: Test on the isolated ileum of a guinea-pig (agonist activity). Conditions: Cavia porcellus, read-out: pD2 (negative logarithm of the dose which produces 50% of the maximum effect) (converted). The format is cell-based. Here is the method:
Pieces of ileum are removed from guinea-pigs which have been killed by decapitation. The isolated ileum is placed in 10 cm^3 of Tyrode's solution at 37° C. and aerated by a mixture of oxygen (95%) and carbon dioxide (5%). The contractions due to the products are recorded using a sensor connected to a polygraph. The products being tested are added, in concentrations comprised between 1.10^-3 M and 1.10^-8 M/1.
The products presenting a contracting effect are tested vis-a-vis atropine and hexamethonium to establish if the activity is of "muscarinic" or "nicotinic" type.
The agonist activity is expressed in pD2 (negative logarithm of the dose which produces 50% of the maximum effect).

The test system of data set [3] is male mice (CD1 Charles Rivers). Description: Hypothermic activity. It is filed as in vivo. The note with it: for ED (-1 C body temperature): Mus musculus, read-out: Effective dose (-1° C.). On the procedure: The test is carried out on male mice (CD1 Charles Rivers) weighing 25 to 30 g, and without food for 6 hours.
The body temperature is noted using a thermocouple placed in the rectum to about 1.5 cm and connected to an electrical temperature recorder. […]
The degree of hypothermia is evaluated as the difference between the treated animals and the control animals and the dose necessary to reduce the body temperature by 1° C. is determined.
The duration of action of the products is determined by using doses capable of reducing the temperature by 1° to 1.2° C.

The mark [4] stands for this setting: isolated guinea-pig ileum, contraction, Tyrode's solution at 37° C.
[5] abbreviates: sc, sub-cutaneous route, dose necessary to reduce body temperature by 1° C.
Setting [6] is: oral route, dose necessary to reduce body temperature by 1° C.

Compound `CON=C(C)C1CN2CCC1CC2` (stereo not shown) [Example 4, (1-azabicyclo-[2,2,2]-octan-3-yl)-ethanone O-methyloxime hydrochloride] showed an LD50 at 168 h in data set [1] of 75 mg/kg. Also, in “Diarrheic activity” (po), the ED50 at 3 h is 3 mg/kg. Also, the EC50 in data set [2] (setting [4]) was 95.5 nM. Also, the ED (-1 C body temperature) in data set [3] (setting [5]) and in data set [3] (setting [6]) was 0.33 mg/kg each time.
With `CC(=O)OC1CN2CCC1CC2` (stereo not shown) [Aceclidine, HCl], the LD50 at 168 h in data set [1] stood at 250 mg/kg. In addition, in “Diarrheic activity” (male CD1 mice, fasted 6 hours, oral, observed up to 180 minutes, read-out: ED50 (dose which causes diarrhoea in 50% of the animals)), the ED50 at 3 h is 4 mg/kg. Moreover, the EC50 in data set [2] was 105 nM. In addition, the “duration of action: body temperature difference from controls” value in data set [3] (2.50 mg/kg sub-cutaneous, 30 min) is -1.0 °C; in data set [3] (2.50 mg/kg sub-cutaneous, 60 min), -0.1 °C; in data set [3] (2.50 mg/kg sub-cutaneous, 120 min), “+0.1 °C”; in data set [3] (2.50 mg/kg sub-cutaneous, 180 min), “+0.1 °C”; in data set [3] (7.50 mg/kg oral, 30 min), -1.1 °C; in data set [3] (7.50 mg/kg oral, 60 min), -0.3 °C. Further, the “duration of action: body temperature difference from controls” value in data set [3] (7.50 mg/kg oral, 180 min) was “+0.1 °C”. Further, the ED (-1 C body temperature) was determined as 6.4 mg/kg in data set [3] (po) and 2.1 mg/kg in data set [3] (sc).
As to `CCON=CC1CN2CCC1CC2` (stereo not shown) [Example 2, 1-azabicyclo-[2,2,2]-octan-3-carboxaldehyde O-ethyloxime], the LD50 at 168 h in data set [1] is 150 mg/kg.
For the compound `CON=CC1CN2CCC1CC2` (stereo not shown) [Example 1, 1-azabicyclo-[2,2,2]-octan-3-carboxaldehyde O-methyloxime], the LD50 at 168 h in data set [1] turned out to be 30 mg/kg. The compound further had an ED50 at 3 h in the data set “Diarrheic activity” (po) of 1.1 mg/kg. In addition, the EC50 in data set [2] (setting [4]) was 50.1 nM. The “duration of action: body temperature difference from controls” value in data set [3] (0.25 mg/kg oral, 30 min) is -1.1 °C; in data set [3] (0.25 mg/kg oral, 60 min), -1.0 °C; in data set [3] (0.25 mg/kg sub-cutaneous, 30 min), -1.2 °C; in data set [3] (0.25 mg/kg sub-cutaneous, 60 min), -1.1 °C. The ED (-1 C body temperature) in data set [3] (setting [5]) came out at 0.18 mg/kg; in data set [3] (setting [6]), 0.19 mg/kg.
For `C#CCON=CC1CN2CCC1CC2` (stereo not shown) [Example 3, 1-azabicyclo-[2,2,2]-octan-3-carboxaldehyde O-2-propynyloxime], the LD50 at 168 h in data set [1] amounted to 40 mg/kg.

For orientation: LD50 means the dose expected to kill half of the subjects tested. A lower LD50 goes with a more toxic substance. As a reminder, the ED50 is the midpoint of the dose-response relation.
